Test results taken from patent publication US20220079966A1, “HYALURONAN SYNTHESIS INHIBITION FOR TREATING AUTOIMMUNE, INFLAMMATORY, FIBROTIC, OR PROLIFERATIVE DISEASES OR DISORDERS” (The Board of Trustees of the Leland Stanford Junior …, priority 2018, published 2022).

What was measured:
Min6 cells = assay: HA synthesis inhibition in Min6 insulinoma cells; type: cell-based; details: insulinoma cell line
Protocol: Samples were thawed and assayed for HA levels using a modified HA ELISA as previously described (Nagy N., et al., J. Clin. Invest. 2015; 125(10):3928-3940). Each sample was analyzed in triplicate with a mean value obtained per sample. For cell normalization, LI-COR CellTag™ 700 Stain was used according to the manufactures protocol.

DORmO mice = assay: DORmO mouse model of type 1 diabetes; type: in vivo; details: for HA accumulation in DORmO pancreatic islets (HA staining): 12 weeks of age, compared to untreated DORmO mice; for onset / progression of T1D as measured by blood glucose over time: fed from 5 weeks of age for 15 weeks
Source text: 10×RIPmOVA (DORmO) mouse. DORmO mice carry a T-cell receptor transgene specific for OVA (emulating autoreactive CD4+ T-cells), while simultaneously expressing OVA in conjunction with the insulin gene promoter on pancreatic beta cells (emulating the autoantigen). All animals were bred and maintained under specific pathogen-free conditions, with free access to food and water, in the animal facilities at Stanford University Medical School (Stanford, Calif.). B6 db/db LeptR-/- mice were purchased from Jackson Laboratories (JAX) as well as DO11.10 transgenic mice. The DO11.10 mice were bred with Balb/c mice expressing RIPmOva (ovalbumin peptide amino acids 323-339; available at the Benaroya Research Institute) to generate the DORmO double-transgenic mice. In addition, C57Bl/6J mice were bred in-house at Stanford University School of Medicine. Beginning at four weeks of age, mice were weighed weekly as well as bled via the tail vein for the determination of their blood glucose level using a Contour® blood glucose meter and blood glucose monitoring strips (Bayer Healthcare). When two consecutive blood glucose readings of 250 mg/dL were recorded, animals were considered diabetic. When two consecutive blood glucose readings of 300 mg/dL were recorded, animals were euthanized. The 4-MU (Alfa Aesar) was pressed into mouse chow (TestDiet, St. Louis, Mo.) and irradiated before shipment, as previously described (Nagy N., et al., Circulation. 2010; 122(22):2313-2322). This chow formulation delivers 250 mg/mouse/day, yielding a serum drug concentration of 640.3±17.2 nmol/L in mice, as measured by HPLC-MS. 4-MUG ([…], Wood Dale, Ill.) was distributed in the drinking water at a concentration of 2 mg/ml, delivering 10 mg/mouse/day, yielding a serum drug concentration of 357.1±72.6 ng/mL in mice, as measured by LC-MS/MS. Mice were initiated on 4-MU and 4-MUG at five, eight or twelve weeks of age, unless otherwise noted, and were maintained on this diet until they were euthanized, unless otherwise noted. For analysis of Foxp3+ regulatory T-cell numbers in naïve mice, mice were treated daily with 0.5 mg of 4-MU or 1.0 mg 4-MUG in 200 μl 0.08% carboxymethylcellulose in saline by intra-peritoneal injection. Tissues for histochemistry were extracted from the animals and immediately transferred into 10% neutral buffered formalin (NBF). The tissue was processed to paraffin on a Leica ASP300 Tissue Processor (Leica Microsystems Inc.). Then 5 μm thick sections were cut on a Leica RM 2255 Microtomes (Leica Microsystems Inc.). All staining steps were performed on a Leica Bond-MaxTM automated immune histochemistry (IHC) stainer (Leica Microsystems Inc.). For HA affinity histochemistry (AFC) the BondTM Intense R Detection kit, a streptavidin-HRP system, (Leica Microsystems, Inc.) was used with 4 μg/mL biotinylated-HABP in 0.1% BSA-PBS as the primary. The BondTM Polymer Detection Kit was used for all other immunohistochemistry. This detection kit contains a goat anti-rabbit conjugated to polymeric HRP and a rabbit anti-mouse post primary reagent for use with mouse primaries. For Foxp3 and insulin (anti-insulin, ab7842 abcam) sections were incubated 60 min with 8 μg/mL rat anti-Foxp3 clone FJK-16s (eBioscience). Incubation with rabbit anti rat IgG (Vector Labs), post-primary was added in lieu of the post-primary reagent from the kit.

[1] = tested on: Foxp3+ regulatory T-cells; assay: Splenocyte regulatory T-cell analysis in wild type mice treated i.p. for 14 days; type: in vivo; details: 4-MU 0.5 mg i.p. or 4-MUG 1 mg i.p. daily for 14 days; for Foxp3+ amongst CD3+/CD4+ cells in splenocytes: flow cytometry
Protocol: The 4-MU (Alfa Aesar) was pressed into mouse chow (TestDiet, St. Louis, Mo.) and irradiated before shipment, as previously described (Nagy N., et al., Circulation. 2010; 122(22):2313-2322). This chow formulation delivers 250 mg/mouse/day, yielding a serum drug concentration of 640.3±17.2 nmol/L in mice, as measured by HPLC-MS. 4-MUG (ChemImpex, Wood Dale, Ill.) was distributed in the drinking water at a concentration of 2 mg/ml, delivering 10 mg/mouse/day, yielding a serum drug concentration of 357.1±72.6 ng/mL in mice, as measured by LC-MS/MS. Mice were initiated on 4-MU and 4-MUG at five, eight or twelve weeks of age, unless otherwise noted, and were maintained on this diet until they were euthanized, unless otherwise noted. For analysis of Foxp3+ regulatory T-cell numbers in naïve mice, mice were treated daily with 0.5 mg of 4-MU or 1.0 mg 4-MUG in 200 μl 0.08% carboxymethylcellulose in saline by intra-peritoneal injection.
Spleens were extracted from mice and cells were harvested by homogenization through a 70 μm cell strainer. Red blood cells were lysed using ACK buffer, after which the splenocyte suspensions were stained according to the protocol described above with the following fluorochrome-conjugated antibodies. V500-CD3 (500A2), BV785-CD4 (RM4-5) and A1488-Foxp3 (FJK-16s). Flow cytometry was performed on an LSRII and data analysis was done using FlowJo (Treestar).

Row | Structure (SMILES) | HA synthesis inhibition in Min6 cells (Min6 cells) | HA accumulation in DORmO pancreatic islets (HA staining) (DORmO mice) | insulin positive cells in pancreatic islets (DORmO mice; DORmO mice) | onset / progression of T1D as measured by blood glucose over time (DORmO mice) | Foxp3 regulatory T-cells in pancreatic islets (FoxP3 staining) (DORmO mice; non-diabetic treated DORmO mice) | CD4+ and CD3+ T-cell numbers in splenocytes [1] | Foxp3+ MFI amongst CD3+/CD4+ cells in splenocytes [1] | Foxp3+ amongst CD3+/CD4+ cells in splenocytes [1]
1 | Cc1cc(=O)oc2cc(O)ccc12 [4-MU, 4-methylumbelliferone] | HA synthesis inhibition | decrease of HA accumulation | insulin positive cells were preserved | sufficient to stop diabetes progression | increase of Foxp3 regulatory T-cells | not affected | increase in their expression of Foxp3 | increase of Foxp3+ regulatory T-cells
2 | Cc1cc(=O)oc2cc(O[C@@H]3O[C@H](C(=O)O)[C@@H](O)[C@H](O)[C@H]3O)ccc12 [4-MUG, 4-methylumbelliferone-glucuronide] | inhibited HA synthesis | decrease of HA accumulation |  | delayed the onset of T1D |  | not affected | increase in their expression of Foxp3 | increase of Foxp3+ regulatory T-cells
